Reference: US20130030282A1, “SYNTHESIS AND CHARACTERIZATION OF NEAR IR FLUORESCENT MAGNETIC AND NON-MAGNETIC ALBUMIN NANOPARTICLES FOR BIOMEDICAL APPLICATIONS” (BAR ILAN UNIVERSITY, priority 2011, published 2013)

Assay: Stability against photobleaching of free CANIR and NIR fluorescent nanoparticles
Type: physicochemical
Details: illuminated continuously with a Xenon flash lamp for 20 minutes; λex 800 nm, λem 830 nm; intensity normalized
Description: Photobleaching is the irreversible light-induced destruction of the fluorophore, affected by factors such as oxygen, oxidizing or reducing agents, temperature, exposure time and illumination levels. For photobleaching experiments, the samples were diluted to 0.05M and λex was set at 800 nm and λem at 830 nm. Each of the samples was illuminated continuously, and fluorescence intensity was measured over a period of 20 minutes. The intensity values were normalized.
Photobleaching experiments were performed for the free CANIR dye and the CANIR-HSA nanoparticles, in order to examine their photostabillity. For the photobleaching experiments, the samples were diluted to 0.05M and λex was set at 800 nm and λem at 830 nm. Each of the samples was illuminated continuously, and fluorescence intensity was measured over a period of 20 minutes. Intensity values were normalized. […] The encapsulation of the dye probably protects the dye against reactive oxygen species thereby reducing the photobleaching.
FIG. 2 depicts the photostability of the CANIR-HSA nanoparticles (A) and free CANIR (B) as a function of time. Samples of CANIR containing HSA nanoparticles and free CANIR were illuminated with a Xenon flash lamp for 20 minutes as described above.

For `CC1(C)C(=CC=C2CCCC(C=CC3=[N+](CCCCS(=O)(=O)[O-])c4ccccc4C3(C)C)=C2Sc2ccc(C(=O)O)cc2)N(CCCCS(=O)(=O)[O-])c2ccccc21.[Na+]` [free CANIR], the “fluorescence intensity during illumination (photostability)” value was “decreases significantly”.
